We go through 2 compounds from patent US6300065A, “Yeast cell surface display of proteins and uses thereof” (Board of Trustees of the University of Illinois, priority 1998, dated 2001).

In test [1] the test system is 4-4-20 anti-fluorescein scFv mutant 4M1.1. Nature of the test: Soluble fluorescein dissociation kinetics by spectrofluorometry (fluorescence quenching, whole cells displaying scFv). In kind it is binding. To be noted: mutant 4M1.1 vs wild-type 4-4-20 scFv. The protocol:
(§1) Binding to soluble fluorescein (FDS) was assayed by observing fluorescence quenching by whole cells displaying scFv. Cells were suspended at 2×10^7 cells/ml in TBS+0.1% BSA in a quartz cuvette thermostatted at 23° C. and titrated with FDS over a range of 0-7.5 nM. […] Control cells displaying an irrelevant scFv were titrated to obtain a slope for a two-parameter fit of an equilibrium binding model to the data, yielding equilibrium constants and effective scFv concentrations. Following the equilibrium titration, 5-aminofluorescein was added to 1 mM and the change in fluorescence of the sample followed with time to determine koff for FDS.

Test [2] relates to 4-4-20 anti-fluorescein scFv mutant 4M1.2. Described as above. In kind it is binding. The conditions noted are these: mutant 4M1.2 vs wild-type 4-4-20 scFv. The protocol: as §1
Test [3] concerns the target 4-4-20 anti-fluorescein antibody. To be noted: stated in discussion, no method given; cited from earlier work.
Test [4] deals with 4-4-20 anti-fluorescein scFv, wild-type, yeast surface displayed Aga2p fusion. Briefly: Competitive dissociation of labeled antigen from yeast surface displayed scFv, followed by flow cytometry. To be noted: 5-aminofluorescein as competitor. The format is binding. The procedure: (§2) Yeast cells bearing plasmid pCT202 were grown and labeled with anti-c-myc mAb 9E10 and FITC-dextran or biotin-fluorescein, as described. A fraction of the labeled population was analyzed flow cytometrically to determine the initial level of fluorescence. Non-fluorescent competitor (5-aminofluorescein) was added to a final concentration of approximately […] (~1000-fold excess) and the FITC or PE fluorescence of the c-myc positive cell population was followed as a function of time at room temperature (21-23° C.) on a Coulter Epics XL. Data were fitted as an exponential decay. The probability that a polyvalent antigen is bound to the cell as a function of time is given by P=1-(1-e^-kt)^N, where N is the valency, k is the kinetic rate constant for dissociation, and t is time. For long times t, this reduces to P=Ne^-kt. Thus, extrapolation of data for long t to time zero yields P=N, or a fluorescence intensity of Fext =N Fo, where Fext is the extrapolated fluorescence at the time of competitor addition and Fo is the actual initial fluorescence.

In test [5] the test system is 4-4-20 anti-fluorescein scFv mutant 4M1.2, yeast surface displayed Aga2p fusion. The test is described as above. The format is binding. The conditions noted are these: 23° C., 5-aminofluorescein as competitor. The protocol:
as §2

Regarding `O=C1OC2(c3ccc(O)cc3Oc3cc(O)ccc32)c2ccccc21` [fluorescein], the “improvement of soluble fluorescein dissociation kinetics relative to wild-type” value in test [1] and in test [2] was 2.2 fold throughout. Besides, the Kd in test [3] was 0.4 nM.

In the case of `O=C(CCCCCNC(=O)CCCC[C@@H]1SC[C@@H]2NC(=O)N[C@@H]21)NCCCCCNC(=S)Nc1ccc2c(c1)C(=O)OC21c2ccc(O)cc2Oc2cc(O)ccc21` [fluorescein-biotin], in test [4] (21° C.), the “monovalent dissociation rate constant (koff) for fluorescein-biotin” value was found to be 0.0039 s⁻¹. Further, the koff for fluorescein-biotin amounted to 0.005 s⁻¹ in test [4] (23° C., wild-type) and 0.0028 s⁻¹ in test [5].
